Here are results for one compound from US20220380331A1, “TREATMENT OF CONDITIONS OF THE NERVOUS SYSTEM” (priority 2019, published 2022).

Entries after “also recorded” stand apart in the source; their conditions may differ.

Assay [1] concerns acute contusive spinal cord injury. Kind of assay: Basso, Beattie and Bresnahan (BBB) HL locomotor open field test after moderate T9 contusion injury. Format: in vivo, rat. Conditions: daily oral treatment, 5 weeks after injury, vehicle ~10. Here is the method:
Adult female Lister-hooded rats (200-250 g) were obtained from Charles River Laboratories (Canterbury, UK). Rats were housed in pairs in Central Biomedical Services (University of Leeds, UK) in a temperature-controlled environment in (20±1° C.), with a 12 hr light/dark cycle (lights on at 07:00). All procedures and experiments complied with the UK Animals (Scientific Procedures) Act 1986. Using isofluorane as an anaesthetic (5% in 02 for induction and 1-2% in 02 for the duration of the procedure), animals were shaved and sterilised. Vertebral segments T7-13 were exposed and a dorsal laminectomy was performed at T8. Vertebral levels T7 and T8 were stabilised whilst an Infinite Horizon impactor (Precision Systems and Instrumentation, LLC, Fairfax Station, Va.) was used to provide a 200 kdyn Cx (moderate injury) at the level of T9. Muscles were sutured and the skin was closed with autoclips. Analgesia ([…] Buprenorphine; 0.015 mg/kg; Henry Schein Animal Health, Dumfries, UK) and antibiotics (Baytril enrofloxacin; 2.5 mg/kg; Henry Schein Animal Heath, Dumfries, UK) were given via subcutaneous injection immediately post-surgery and for three days following surgery. […] HL locomotor ability was assessed at various time points throughout the acute SCI paradigm using the BBB HL locomotor scale. […] Each BBB test was simultaneously assessed by two individuals. […]

Assay [2] relates to sensorimotor cortical slices. Kind of assay: Field potentials and paired-pulse protocols in in vitro sensorimotor cortical slices. Also noted: species or system rat. The method, then: FIG. […]): Forelimb (FL) shifts into hindlimb (HL) area of sensorimotor cortex (M1) after perineuronal net inhibitor (PNNi) and spinal cord injury (SCI) combination. PNNi and/or injury independently enhances cortical plasticity in spinal cord injured rats. Intracortical microstimulation (ICMS) was performed at stereotaxic coordinates within a right hemisphere craniotomy 5 mm rostral/caudal to bregma (B) (A) 11 weeks post-injury. Representative heat maps per group illustrate the percentage of animals for each stereotaxic coordinate where HL (B-C) or FL (D-E) movements were able to be elicited. The Lister Hooded rat baseline HL and FL cortical maps (dotted outlines in B-E) were compared to groups with mid-thoracic SCI (B, D) and/or long-term PNNi administration (C, E) to assess structural plasticity. HL movements were unable to be elicited after SCI (B-C). Measurements for FL analysis (K-N) are illustrated in J). After PNNi and/or SCI, FL movements were elicited in areas that previously elicited HL movements (see right of white dotted outline D-E). […] G: Plot of the average field potential amplitudes vs. stimulus intensity per group. Synaptic responses were elicited in cortical layers II/III by electrical stimuli via bipolar electrodes placed in cortical layers V/VI. Recordings were performed on cortical slice at the following coordinates: ML: 2-3 mm and AP 1.40-1.8 mm caudal to bregma. […]

`Cc1cc(=O)oc2cc(O)ccc12` [PNNi, 4-methylumbelliferone]: the BBB score in assay [1] is given as about 15 scores. In addition, the intracortical synaptic transmission entry in assay [2] (combination of SCI and PNNi treatment) was “increased intracortical synaptic transmission; also recorded: elevated synaptic transmission”. The “paired-pulse inhibition (PPR)” value in assay [2] (sham animals, short and long interstimulus intervals) is listed as “not altered”.
